The record followed here is PubChem BioAssay AID1552 (Sanford-Burnham Center for Chemical Genomics, 2009).

In general, Kd refers to a measure of binding affinity in units of concentration.

Activity calls are given as the source filed them. No rule for the calls is given here. Some results are limits rather than exact numbers.

The experiment deals with Ubiquitin-conjugating enzyme E2 N (Homo sapiens) (UniProt P61088). Briefly: UBE2N binders by NMR, biophysical, purified protein (AID 1552). The settings on record: NMR binding to purified UBE2N.
Chain of Ubiquitin-conjugating enzyme E2 N (Homo sapiens) (P61088 whole entry, looked up): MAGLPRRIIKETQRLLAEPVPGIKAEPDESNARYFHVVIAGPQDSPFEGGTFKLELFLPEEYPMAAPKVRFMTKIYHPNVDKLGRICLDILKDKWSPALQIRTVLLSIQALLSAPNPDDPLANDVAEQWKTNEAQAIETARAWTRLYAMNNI

Consider `CC(C)c1ccc2c(c1O)CC[C@H]1C3=C(CC[C@]21C)C(=O)OC3`, for which the Kd was > 4 mM (inactive).
Turning to `Nc1nc(-c2ccccc2)cc(=O)[nH]1`, the Kd was > 4 mM (inactive).
Turning to `COC(=O)c1oc2ccc(Cl)cc2c1NC(C)=O`, the Kd was > 4 mM (inactive).
The figure for `CC1=CC2C(C(C)C)CCC(C)(O)C2CC1` (centres undefined) is > 4 mM (inactive).
With `O=C(O)Cn1nc(-c2ccccc2)c2ccccc2c1=O`, the Kd was > 4 mM (inactive).
With `NC(=O)c1ccc(NC(=O)c2ccco2)cc1`, the Kd is > 4 mM (inactive).
Consider `Cc1cc(O)c(C=O)c(O)c1C(=O)O`, for which the Kd was > 4 mM (inactive).
As to `Oc1ccc(-c2n[nH]c(=S)n2Cc2ccco2)cc1`, the Kd is > 4 mM (inactive).
As to `Nc1cccnc1Oc1ccc(F)cc1F`, the Kd is > 4 mM (inactive).
As to `COCC(=O)Nc1c(C(N)=O)oc2ccccc12`, the Kd is > 4 mM (inactive).
With `O=C(NC(=S)NCc1cccnc1)c1ccco1`, the Kd is > 4 mM (inactive).
Consider `Cc1ccccc1NC(=O)N1CCOCC1`, for which the Kd was > 4 mM (inactive).
Take `CC(=O)O[C@@H]1CC2C(C)(C)C(=O)C=C[C@]2(C)C2CC[C@]3(C)C(=CC(=O)O[C@H]3c3ccoc3)[C@@]21C` (some centres undefined): the Kd was > 4 mM (inactive).
Turning to `COc1ccc2c(c1OC)C(=O)O[C@@H]2[C@@H]1c2cc3c(cc2CCN1C)OCO3`, the Kd was > 4 mM (inactive).
The figure for `Cn1c(=O)[nH]c2nc[nH]c2c1=O` is > 4 mM (inactive).
For the compound `Nc1ccc2c(c1)S(=O)(=O)C=C2`, the Kd is > 4 mM (inactive).
For `OCc1snnc1-c1ccccc1`, the Kd was > 4 mM (inactive).
Turning to `O=C(Nc1ccc(F)cc1F)c1ccco1`, the Kd was > 4 mM (inactive).
In the case of `Clc1ccc(-c2noc(CN3CCCC3)n2)cc1`, the Kd was > 4 mM (inactive).
Regarding `CN1CCN(S(=O)(=O)c2ccc(=O)[nH]c2)CC1`, the Kd was > 4 mM (inactive).
`COC(=O)C1CCc2ccccc2N1` (centres undefined): the Kd is > 4 mM (inactive).
Turning to `O=C(c1ncc[nH]1)c1ccccc1C(=O)N1CCOCC1`, the Kd was > 4 mM (inactive).
For the compound `COc1ccccc1NC(=O)C1CCC(=O)N1` (centres undefined), the Kd was > 4 mM (inactive).
Regarding `CC(=O)N=c1cccc(NC(C)=O)n1O`, the Kd is > 4 mM (inactive).
To `O=C(Nc1ccon1)c1ccc2c(c1)OCO2` belongs > 4 mM (inactive).
With `Cn1c(=O)c2[nH]cnc2n(-c2ccccc2)c1=O`, the Kd is > 4 mM (inactive).
Turning to `O=C(O)C1CSC(c2ccc(Cl)cc2)N1` (centres undefined), the Kd was > 4 mM (inactive).
Take `C[n+]1ccc(C(=O)[O-])cc1`: the Kd is > 4 mM (inactive).
`O=C(Nc1ccc(N2CCOCC2)cc1)C1CC1`: the Kd is > 4 mM (inactive).
For `CC(C)=CCC/C(C)=C/CC/C(C)=C/CC/C(C)=C/CC/C(C)=C/CC/C(C)=C/CC/C(C)=C/CC/C(C)=C/CC/C(C)=C/CO`, the Kd was > 4 mM (inactive).
To `O=C1c2ccccc2-c2ncnc3cccc1c23` belongs > 4 mM (inactive); to `CC(NC(=O)c1ccco1)C1CCCO1` (centres undefined), > 4 mM (inactive).
For `CSc1nnc(-c2ccccc2NC(C)=O)o1`, the Kd was > 4 mM (inactive).
Take `Cc1nc(-c2cc(C(=O)O)no2)cs1`: the Kd is > 4 mM (inactive).
In the case of `CN1CCc2c(sc(N)c2C#N)C1`, the Kd was > 4 mM (inactive).
On to `O=C(O)c1scc2c1CCCC2`, for which the Kd was > 4 mM (inactive).
Regarding `Cc1cccc(-c2nnc(-c3ccc(N)cc3)o2)c1`, the Kd is > 4 mM (inactive).
To `C[C@]12CCC(=O)C=C1CCC1C2C(=O)C[C@@]2(C)C1CC[C@]2(O)C(=O)CO` (some centres undefined) belongs > 4 mM (inactive); to `O=C(O)CC1NCCNC1=O` (centres undefined), > 4 mM (inactive); to `Nc1ccc2c(c1)CCC2=O`, > 4 mM (inactive).
`O=C(c1ccccc1)N1CCOCC1`: the Kd was > 4 mM (inactive).
As to `NCCN=C1NS(=O)(=O)c2ccccc21`, the Kd was > 4 mM (inactive).
The figure for `NC(=O)CSc1nnc2ccc(-c3ccco3)nn12` is > 4 mM (inactive).
On to `c1ccn(Cc2ccncc2)c1`, for which the Kd was > 4 mM (inactive).
In the case of `C=C(C)[C@H]1CC=C(C(=O)O)CC1`, the Kd is > 4 mM (inactive).
With `O=C(Nc1nnc(-c2ccco2)o1)c1ccc([N+](=O)[O-])o1`, the Kd was > 4 mM (inactive).
`COC(=O)Nc1ccc2ncn(C)c(=O)c2c1`: the Kd is > 4 mM (inactive).
With `Cc1cc(C(=O)Nc2sc(C)c(C)c2C#N)no1`, the Kd is > 4 mM (inactive).
For `Cc1cc(C)c(NC(=O)CN2CCC(O)CC2)c(C)c1`, the Kd was > 4 mM (inactive).
Turning to `CC1(C)C2CC[C@]3(C)C(C(=O)C=C4[C@H]5C[C@@](C)(C(=O)O)CC[C@]5(C)CC[C@]43C)[C@@]2(C)CC[C@@H]1O` (some centres undefined), the Kd is > 4 mM (inactive).
Regarding `O=C1CCC(=O)N1CN1CCOCC1`, the Kd was > 4 mM (inactive).
Turning to `COc1ccc2nc(N)sc2n1`, the Kd is > 4 mM (inactive).
Regarding `NC(=O)CSc1ccc(-c2ccccc2)nn1`, the Kd is > 4 mM (inactive).
As for `C[C@H]1C(=O)CCC2[C@]3(C)CC[C@@]4(C)C5CC(C)(C)CC[C@]5(C)CC[C@]4(C)C3CC[C@@]21C` (some centres undefined), the Kd is > 4 mM (inactive).
Regarding `CC(=O)Nc1ccc(NC(=O)C2CC2)cc1`, the Kd was > 4 mM (inactive).
`COc1cc(C)c(Cl)cc1S(=O)(=O)N(C)C`: the Kd is > 4 mM (inactive).
To `Cc1sc2nc[nH]c(=S)c2c1C` belongs > 4 mM (inactive); to `CC1=NN(C(N)=S)C(C)(C)C1`, > 4 mM (inactive); to `CC1(C)N=C2C(=[N+]1[O-])CCC/C2=N\O`, > 4 mM (inactive).
Consider `CC(=O)O[C@@H]1CC2C(C)(C)[C@H](O)C=C[C@]2(C)C2CC[C@@]3(C)[C@H](c4ccoc4)OC(=O)C4OC43[C@@]21C` (some centres undefined), for which the Kd is > 4 mM (inactive).
Take `O=c1[nH]cc(N=Cc2ccc(F)cc2)c(=O)[nH]1`: the Kd is > 4 mM (inactive).
Consider `CCc1c(C)n([O-])c2c([n+]1=O)CCC2`, for which the Kd was > 4 mM (inactive).
As for `O=C(O)Cn1cc(C(=O)c2cccs2)c2ccccc21`, the Kd was > 4 mM (inactive).
Regarding `Cn1ncc(NC(=O)Nc2ccc(F)cc2F)c1C(N)=O`, the Kd was > 4 mM (inactive).
Take `CN1CC(=O)N=C1N`: the Kd is > 4 mM (inactive).
The figure for `C=CCn1c(N)c(C(=O)N2CCOCC2)sc1=S` is > 4 mM (inactive); for `NCc1cn2ccccc2n1` it is > 4 mM (inactive).
For the compound `O=C(O)CNS(=O)(=O)c1cccs1`, the Kd was > 4 mM (inactive).
For the compound `O=C1C(=O)N(CN2CCN(CCO)CC2)c2ccccc21`, the Kd was > 4 mM (inactive).
To `Cc1cc(NC(=O)c2cccc(N3C(=O)CCC3=O)c2)no1` belongs > 4 mM (inactive); to `CCOc1ccc2nc(NS(C)(=O)=O)sc2c1`, > 4 mM (inactive); to `Nc1cc(=O)[nH]c(SCC(=O)Nc2nccs2)n1`, > 4 mM (inactive).
Consider `COc1ccc2c(c1)OCc1c-2oc2cc(OC)ccc12`, for which the Kd is > 4 mM (inactive).
As for `CCC1(CC)C(=O)N=C(N)NC1=O`, the Kd is > 4 mM (inactive).
